Reference: patent US20230391824A1, “RATIONALE, DESIGN, SYNTHESIS AND VALIDATION OF A SMALL MOLECULE ANTICANCER AGENT” (priority 2021, published 2023)

What was measured:
[1] = target: T1, Lin28A protein (Homo sapiens, UniProt Q9H9Z2); assay: Western blotting of Lin28A protein in cancer cell models; type: cell-based; conditions: YP-MEL, BT-37, NT-2 cells
T1 construct: in a panel of endogenously LIN28 expressing cancer cell models; endogenous in cells; host or cells: T47D, YP-MEL, BT-12, BT-37, NT-2 (NTERA)
T1 sequence (Q9H9Z2 1-209): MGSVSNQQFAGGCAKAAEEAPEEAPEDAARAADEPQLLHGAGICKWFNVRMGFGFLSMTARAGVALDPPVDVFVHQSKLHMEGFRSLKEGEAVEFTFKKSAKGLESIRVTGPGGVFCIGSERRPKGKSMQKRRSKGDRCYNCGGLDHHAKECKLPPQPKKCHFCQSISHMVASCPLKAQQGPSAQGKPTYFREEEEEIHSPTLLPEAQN
Procedure: (§1) FIG. 5: Compound of formula (I) mixture, containing the two isomers (P1+P2) causes significant reduction in Lin28A protein from 5 μM onwards, in a panel of endogenously LIN28 expressing cancer cell models. […] LIN28A and LIN28B expression profile in pediatric CNS cancer cell lines, 96-hr post-treatment with Compound of formula (I). SDS-PAGE on 10% polyacrylamide gel of total cell lysates from untreated cells harvested at 80-90% confluency. Samples loaded with volumes for 20 μg protein. LIN28A and LIN28B proteins were detected using the anti-LIN28A antibody (#8706; Cell Signaling Technology) and anti-LIN28B antibody (#11965; Cell Signalling Technology) at 1:2000 dilutions. T47D: adult breast cancer (LIN28A expressing); YPMEL: malignant melanoma derived from Neurocutaneous Melanosis (NCM) (Lin28A and Lin28B expressing); BT-12: pediatric atypical-teratoid rhabdoid tumor (AT/RT).
FIG. 7A-C: To determine the differences in the biological activity of the two isomers (P1+P2) of Compound of formula (I), we tested the effects of purified and separated P1 and P2 isomers on the protein expression of Lin28A and Lin28B. (A) YP-MEL (NCM). (B) BT-37 (AT/RT). (C) NT-2 (NTERA) (Testicular cancer).
(§2) The proteins were extracted from the same samples as the RNA using the RIPA lysis buffer. The protein extracts (20 μg) were run on 10% SDS-PAGE and transferred on a nitrocellulose blotting membrane 0.22 μm (GE Healthcare) using the Trans-Blot® SD semi-dry transfer devise (Biorad). The proteins were detected using the anti-Lin28A antibody (#8706; Cell Signaling Technology), anti-Lin28B antibody (#11965, Cell Signaling Technology) the anti-beta-actin antibody at respectively 1:2000, 1:2000 and 1:5000 dilutions.

[2] = target: T2, LIN28B protein (Homo sapiens, UniProt Q6ZN17); assay: Western blotting of Lin28B protein in cancer cell models; type: cell-based; conditions: YP-MEL, BT-37, NT-2 cells; at the tested dosages
T2 construct: in a panel of endogenously LIN28 expressing cancer cell models; endogenous in cells; host or cells: YP-MEL, BT-12, BT-37, NT-2 (NTERA)
T2 sequence (Q6ZN17 1-250): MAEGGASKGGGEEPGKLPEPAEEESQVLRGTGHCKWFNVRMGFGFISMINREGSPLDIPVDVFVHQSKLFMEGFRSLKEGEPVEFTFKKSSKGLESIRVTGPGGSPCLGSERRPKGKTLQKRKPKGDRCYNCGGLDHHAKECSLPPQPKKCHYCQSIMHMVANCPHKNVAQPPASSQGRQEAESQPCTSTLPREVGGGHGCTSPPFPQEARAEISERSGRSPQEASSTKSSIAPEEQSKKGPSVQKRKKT
Procedure: as §1, with “(AT/RT). […]” for “(AT/RT).”
The proteins were extracted from the same samples as the RNA using the RIPA lysis buffer. […] The proteins were detected using the anti-Lin28A antibody (#8706; Cell Signaling Technology), anti-Lin28B antibody (#11965, Cell Signaling Technology) the anti-beta-actin antibody at respectively 1:2000, 1:2000 and 1:5000 dilutions.

[3] = Solubility; type: physicochemical; conditions: DMSO, organic solvent or mixture; read-out: solubility in DMSO
[4] = system: NT-2 testicular cancer cells; assay: Flow cytometric (propidium iodide) cell cycle analysis of NT-2 cells; type: cell-based; conditions: 24h, compared with P1
Procedure: FIG. 9: NT-2, testicular cancer cells, were incubated with Compound of formula (I) isomers for 24h and subjected to Flow Cytometric analysis to determine the alterations in cancer cell cycle. […] Therefore, only the P1 isomer of Compound of formula (I) was investigated further to determine its in vitro and in vivo efficacy.
The method for Propidium Iodide (PI) based cell cycle analysis was performed as per the instructions given by the manufacturer (AB139418; Abcam). Briefly NT-2 cells treated with Compound of formula (I) versions were harvested in single cell suspensions with each experimental condition containing two million cells, fixed in 66% Ethanol overnight at 4° C. The ethanol was removed thoroughly by centrifugation, followed by rehydration of cells in PBS with a repeat of centrifugation. Cells were stained in PI (1%) and RNase solution (1%) in PBS for 30 minutes at 37° C. in the dark. The cells were analyzed immediately on the Flow Cytometer.

[5] = system: LIN28A-positive cancer cell models; assay: Alamar Blue cell viability, LIN28A-positive versus LIN28B-expressing cancer cell models; type: cell-based; conditions: relative to LIN28B-expressing cancer cell models
Procedure: FIG. 6: Cells were cultured in the presence of the Compound of formula (I) (P1+P2) at increasing concentrations and cell viability was evaluated using Alamar Blue dye and measurement at Excitation of 550 nm and Emission of 590 nm. All the data shown are representative of three replicates. […] LIN28A and LIN28B expression in the presence of Compound of formula (I) correlates with the sensitivity of cells to this inhibitor.
(§3) FIG. 8A-F: Cells were cultured in the presence of the Compound of formula (I) (versions P1, P2 or P1+P2 at equipotent doses) at increasing concentrations and cell viability was evaluated using Alamar Blue dye and measurement at Excitation of 550 nm and Emission of 590 nm. All the data shown are representative of three replicates. […] A. NT-2 cell viability. B. YP-MEL cell viability. C. WI-38 cell viability. D. T47D cell viability. E. BT-12 cell viability. F. summary of Lin28A and Lin28B status.
as §3, with “8A-F.” for “8A-F:”, “F. summary of Lin28A and Lin28B status.” left out

[6] = system: let-7a miRNA; assay: Taqman miRNA qRT-PCR of let-7a; type: cell-based
Procedure: FIG. 11: Compound of formula (I) lead to successful rescue of pre-Iet-7a and their maturation to miRNA let-7a tumor suppressor, only at 1 μM.
Total RNA was extracted using the RNeasy kit (74104, Qiagen). TaqMan® qRT-PCR was performed using standard reagents from Life Technologies (TaqMan® MicroRNA Assay: hsa-let-7a: 000377). The RT was performed using the TaqMan® primers from MicroRNA Assays and the TaqMan® MicroRNA Reverse Transcription Kit (4366596, Life technologies) with 20 ng total RNA. The PCR was performed in a LightCycler 480 instrument with GoTaq® Probe qPCR Master mix (A6102, Promega) according to the manufacturer's protocol. Each reaction was carried out in three technical replicates.

[7] = system: stem cell tumor spheres; assay: Stem cell tumor spheres, western blotting of stemness and differentiation markers; type: cell-based
Procedure: FIG. 12: Dose-dependent effect of Compound of formula (I) on the stem cell tumor spheres, in the presence of LIF—a pluripotency supplement used for maintenance of stem cell population (Panel A). As determined by western blotting, Compound of formula (I) begins to halt the expression of stemness markers (Nestin, LIN28A, Oct-4) and induces elevation of differentiation markers (GFAP), from 1 μM onwards (Panel B).
as §2

[8] = system: BHQ1-pre-let7a and EGFP-Lin28A bound complexes; assay: FRET assay, displacement of BHQ1-pre-let7a from EGFP-Lin28A; type: binding; conditions: at 100 μM
Procedure: This method was adapted from Roos et al (2016). HEK 293-T cells (ATCC) were cultured as monolayers in DMEM GlutaMAX™-1 (Cat #31966-021, Gibco®, Life Technologies) supplemented with 10% of FBS (fetal bovine serum). Stable EGFP-Lin28A HEK 293-T cells were cultured as monolayers in DMEM supplemented with 10% of FBS (fetal bovine serum) and 0.5 mg/ml Geneticin G418 (10131-035, Life Technologies). Transfections were performed according to the manufacturer's protocol with […] (12252-011, Invitrogen, Life Technologies) for siRNAs and JetPEI (101-10, Polyplus transfections) was used for plasmid DNA. […]
160,000 HEK 293 T cells were seeded per well in 6 well plates and transfected with 320 ng pEGFP-C2-Lin28A plasmid according to the experimental setup with the reagents described above and cells were allowed to recover for 48h. […] The EGFP-lin28A| expressing cells were sorted using Fluorescence Activated Cell Sorting (FACS). Finally, larger colonies of individual clones were analyzed for expression levels of EGFP-Lin28A by performing the FRET assay. […]
FRET system (EGFP-Lin28A and 19B-let7a) treated with DMSO was used as positive control. […] The FRET measurements were obtained from the optimized fluorescence parameter. […] The average signal intensity and background fluorescence were corrected with compound self-fluorescence with and without binding buffer.

For CCC(C)C(NC(=O)C(Cc1ncc[nH]1)NC(=O)c1cccc(C(N)=O)c1)C(=O)Nc1ccc(O)c(-c2nc3ccccc3s2)c1 (centres unmarked) [Compound P2], the “effect on the expression levels of Lin28A” value [1] was “no effect”, the Lin28B expression [2] was “remained unaltered” and the solubility [3] was less than 1000 µg/mL. The “triggering of cancer cell death / changes in cancer cell viability” value [4] was “failed to cause any significant changes”.
With CC[C@H](C)[C@H](NC(=O)[C@H](Cc1ncc[nH]1)NC(=O)c1cccc(C(N)=O)c1)C(=O)Nc1ccc(O)c(-c2nc3ccccc3s2)c1 [Compound of formula (I)] the “sensitivity of LIN28A-positive cancer cell models” value [5] was “heightened sensitivity”, the “concentration giving rescue of pre-let-7a and maturation to miRNA let-7a” value [6] was 1 µM and the “upregulation of let-7a” value ([6]; Lin28B expressing BT-12 cells, relative to RNU6B) was “only minor upregulation”. For the same molecule, the “expression of let-7a miRNA tumor suppressor” value ([6]; YP-MEL, T47D, A549 cells, relative to RNU6B) was “increase in the expression”, the “effect on stemness and differentiation markers in the stem cell population” value [7] was “dose dependent reduction of sternness markers and elevation of differentiation markers” and the “concentration from which stemness markers (Nestin, LIN28A, Oct-4) are halted and differentiation markers (GFAP) elevated” value ([7]; in the presence of LIF, western blotting) was no less than 1 µM.
In the case of CC(=O)N(C)c1cccc(-c2ccc3nnc(C)n3n2)c1 [c1632, reference compound], the “FRET reduction compared with 70% by Compound of formula (I)” value [8] is reported as “equivalent FRET reduction”.
